Consider 21 molecules from patent US20220372014A1, “NEUROPROTECTIVE COMPOUNDS AND METHODS OF USE THEREOF” (The Johns Hopkins University, priority 2019, published 2022).

The target in one assay is T1, MIF (Homo sapiens, UniProt P14174).
T1 sequence (P14174 1-115): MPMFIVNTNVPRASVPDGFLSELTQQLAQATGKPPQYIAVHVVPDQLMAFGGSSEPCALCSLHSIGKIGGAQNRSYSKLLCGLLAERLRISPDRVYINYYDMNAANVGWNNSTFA
Briefly: Nuclease assay of Example 3 (MIF inhibitory activity, Table 4). It is filed as biochemical. On the set-up: (%) inhibition of MIF nuclease activity: concentration or dose not given beside the values. The note with it: nuclease assay of Example 3. How it is done: A rapafucin library was synthesized as described in WO2017/136708 and Guo et al. (2018) Nat. Chem. 11:254-63. The hybrid macrocyclic library consisted of 45,000 compounds in pools of 15 individual compounds. The library compounds were screened for MIF inhibitory activity using a nuclease assay as detailed in FIG. 1 and below.
Nuclease assay: Human genomic DNA (200 ng/reaction, Promega), pcDNA (200 ng/reaction) or PS^30 and its related and non-related substrates (1 μM) was incubated with wild type MIF or its variants at a final concentration of 0.25-8 μM as indicated in 10 mM Tris-HCl buffer (pH 7.0) containing 10 mM MgCl2 and 1 mM DTT or specific buffer as indicated, for 1 h (with pcDNA and small DNA substrates) or 4 h (with human genomic DNA) at 37° C. The reaction was terminated with loading buffer containing 10 mM EDTA and incubation on ice. The human genomic DNA samples were immediately separated on a 1.2% pulse field certified agarose in 0.5×TBE buffer with initial switch time of 1.5 s and a final switch time of 3.5 s for 12 h at 6 V/cm. pcDNA samples were determined by 1% agarose gel. Small DNA substrates were separated on 15% or 25% TBE-urea polyacrylamide (PAGE) gel or 20% TBE PAGE gel. Then gel was stained with 0.5 μg/ml Ethidium Bromide (EtBr) followed by electrophoretic transfer to nylon membrane. Then, Biotin-labeled DNA is further detected by chemiluminescence using Chemiluminescent Nucleic Acid Detection Module (Thermo Scientific).
Structure-activity relationship (SAR) analysis was then conducted on the compounds identified as having MIF inhibitory activity. Compounds having the structure of Formula (I) were then synthesized as shown in Example 1 and tested for MIF inhibitory activity using the nuclease assay described herein and neuronal protection via a cell death assay as detailed below.

The test system of assay [1] is HeLa cells or neuronal cells. The assay can be described thus: Cell death assay of Example 3 (MNNG, alamarBlue; protection against parthanatos, Table 4). It counts as cell-based. The note with it: 1 μM test compound, MNNG-induced cell death, alamarBlue. On the procedure:
Cell death assay: 200 μl of cells (HeLa cells or neuronal cells) culture (1×10^4 cells/well) were plated into the wells of a sterile 96-well cell culture plate. The cells were incubated for 18 hours at 37° C. The medium was removed and changed with 100 μl/well of 1 μM test compound. Incubate for 1 hours at 37° C. Ten μl of 500 μM MNNG (N-Methyl-N′-nitro-N-nitrosoguanidine) was added to each well. The medium was aspirated well and incubated for 15 min at 37° C. The cells were washed with the fresh medium. The medium was changed with 1 μM of test compound and incubated for 18 hours at 37° C. 10 μl/well of alamarBlue reagent was added directly to the well and incubated for 1 to 4 hours at 37° C. Fluorescence was measured using a fluorescence excitation wavelength of 560 nm and emission at 590 nm. The percentage of cell death was determined as the ratio of live to dead cells compared with the percentage of cell death in control wells to account for cell death attributed to mechanical stimulation of the cultures.

Regarding `COc1ccc(CC[C@H]2OC(=O)[C@@H]3CCCCN3C(=O)C(=O)C(C)(C)COC(=O)C=CCCN(C)C(=O)[C@H](C(C)C)NC(=O)[C@H](COC(C)(C)C)N(C)C(=O)[C@H](Cc3ccc4ccccc4c3)NC(=O)[C@H](C)N(C)C(=O)COc3cccc2c3)cc1OC` [compound 29], the “(%) inhibition of MIF nuclease activity” value on MIF was 12.4%. Also, the “(%) inhibition of cell death” value in assay [1] was 57.8%.

Take `COc1ccc(CC[C@H]2OC(=O)[C@@H]3CCCCN3C(=O)C(=O)C(C)(C)COC(=O)C=CCCN(C)C(=O)C(c3ccccc3)NC(=O)[C@H](COC(C)(C)C)N(C)C(=O)[C@H](Cc3ccc4ccccc4c3)NC(=O)[C@H](C)N(C)C(=O)COc3cccc2c3)cc1OC` (stereo partly drawn) [compound 30]: the “(%) inhibition of MIF nuclease activity” value at MIF is on record as 18.6%. Besides, the “(%) inhibition of cell death” value in assay [1] is 51.5%.

Turning to `COc1ccc(CC[C@H]2OC(=O)[C@@H]3CCCCN3C(=O)C(=O)C(C)(C)COC(=O)C=CCCN(C)C(=O)CNC(=O)[C@H](COC(C)(C)C)N(C)C(=O)C(c3ccccc3)NC(=O)CN(C)C(=O)COc3cccc2c3)cc1OC` (stereo partly drawn) [compound 31], the “(%) inhibition of MIF nuclease activity” value on MIF came out at 22.9%. Also, in assay [1], the “(%) inhibition of cell death” value is given as 52.3%.

With `COc1ccc(CC[C@H]2OC(=O)[C@@H]3CCCCN3C(=O)C(=O)C(C)(C)COC(=O)C=CCCN(C)C(=O)[C@H](C)NC(=O)[C@H](COC(C)(C)C)N(C)C(=O)C(c3ccccc3)NC(=O)CN(C)C(=O)COc3cccc2c3)cc1OC` (stereo partly drawn) [compound 32], the “(%) inhibition of MIF nuclease activity” value at MIF is listed as 11.2%. Also, the “(%) inhibition of cell death” value in assay [1] is on record as 54.3%.

On to `COc1ccc(CC[C@H]2OC(=O)[C@@H]3CCCCN3C(=O)C(=O)C(C)(C)COC(=O)C=CCCN(C)C(=O)[C@@H](C)NC(=O)[C@H](COC(C)(C)C)N(C)C(=O)C(c3ccccc3)NC(=O)CN(C)C(=O)COc3cccc2c3)cc1OC` (stereo partly drawn) [compound 33], for which, at MIF, the “(%) inhibition of MIF nuclease activity” value is 12.6%. Moreover, the “(%) inhibition of cell death” value in assay [1] stood at 53.4%.

Regarding `CCC[C@@H]1NC(=O)[C@H](COC(C)(C)C)N(C)C(=O)C(c2ccccc2)NC(=O)CN(C)C(=O)COc2cccc(c2)[C@@H](CCc2ccc(OC)c(OC)c2)OC(=O)[C@@H]2CCCCN2C(=O)C(=O)C(C)(C)COC(=O)C=CCCN(C)C1=O` (stereo partly drawn) [compound 34], on MIF, the “(%) inhibition of MIF nuclease activity” value was determined as 24.2%. Also, the “(%) inhibition of cell death” value in assay [1] is 58.4%.

With `COCC[C@@H]1NC(=O)[C@H](COC(C)(C)C)N(C)C(=O)C(c2ccccc2)NC(=O)CN(C)C(=O)COc2cccc(c2)[C@@H](CCc2ccc(OC)c(OC)c2)OC(=O)[C@@H]2CCCCN2C(=O)C(=O)C(C)(C)COC(=O)C=CCCN(C)C1=O` (stereo partly drawn) [compound 35], the “(%) inhibition of MIF nuclease activity” value at MIF came out at 21.5%. In addition, the “(%) inhibition of cell death” value in assay [1] is 56.3%.

For the molecule `COc1ccc(CC[C@H]2OC(=O)[C@@H]3CCCCN3C(=O)C(=O)C(C)(C)COC(=O)C=CCCN(C)C(=O)[C@H](CC(C)C)NC(=O)[C@H](COC(C)(C)C)N(C)C(=O)C(c3ccccc3)NC(=O)CN(C)C(=O)COc3cccc2c3)cc1OC` (stereo partly drawn) [compound 36], on MIF, the “(%) inhibition of MIF nuclease activity” value is listed as 18.5%. Moreover, the “(%) inhibition of cell death” value in assay [1] amounted to 51.0%.

Take `COc1ccc(CC[C@H]2OC(=O)[C@@H]3CCCCN3C(=O)C(=O)C(C)(C)COC(=O)C=CCCN(C)C(=O)[C@@H](CC(C)C)NC(=O)[C@H](COC(C)(C)C)N(C)C(=O)C(c3ccccc3)NC(=O)CN(C)C(=O)COc3cccc2c3)cc1OC` (stereo partly drawn) [compound 37]: at MIF, the “(%) inhibition of MIF nuclease activity” value came out at 18.0%. In addition, the “(%) inhibition of cell death” value in assay [1] was 59.6%.

Consider `COc1ccc(CC[C@H]2OC(=O)[C@@H]3CCCCN3C(=O)C(=O)C(C)(C)COC(=O)C=CCCN(C)C(=O)[C@@H](Cc3ccccc3)NC(=O)[C@H](COC(C)(C)C)N(C)C(=O)C(c3ccccc3)NC(=O)CN(C)C(=O)COc3cccc2c3)cc1OC` (stereo partly drawn) [compound 39], for which the “(%) inhibition of MIF nuclease activity” value at MIF came out at 31.1%. Moreover, the “(%) inhibition of cell death” value in assay [1] is listed as 57.5%.

Consider `COc1ccc(CC[C@H]2OC(=O)[C@@H]3CCCCN3C(=O)C(=O)C(C)(C)COC(=O)C=CCCN(C)C(=O)[C@H](Cc3ccc(F)cc3)NC(=O)[C@H](COC(C)(C)C)N(C)C(=O)C(c3ccccc3)NC(=O)CN(C)C(=O)COc3cccc2c3)cc1OC` (stereo partly drawn) [compound 40], for which the “(%) inhibition of MIF nuclease activity” value at MIF stood at 37.4%. The “(%) inhibition of cell death” value in assay [1] was 53.8%.

On to `COc1ccc(CC[C@H]2OC(=O)[C@@H]3CCCCN3C(=O)C(=O)C(C)(C)COC(=O)C=CCCN(C)C(=O)[C@H](CC3CCCCC3)NC(=O)[C@H](COC(C)(C)C)N(C)C(=O)C(c3ccccc3)NC(=O)CN(C)C(=O)COc3cccc2c3)cc1OC` (stereo partly drawn) [compound 42], for which the “(%) inhibition of MIF nuclease activity” value on MIF is recorded as 40.8%. The “(%) inhibition of cell death” value in assay [1] was 53.2%.

In the case of `COc1ccc(CC[C@H]2OC(=O)[C@@H]3CCCCN3C(=O)C(=O)C(C)(C)COC(=O)C=CCCN(C)C(=O)[C@H](Cc3ccc4ccccc4c3)NC(=O)[C@H](COC(C)(C)C)N(C)C(=O)C(c3ccccc3)NC(=O)CN(C)C(=O)COc3cccc2c3)cc1OC` (stereo partly drawn) [compound 43], the “(%) inhibition of MIF nuclease activity” value on MIF is recorded as 45.6%. Further, in assay [1], the “(%) inhibition of cell death” value is listed as 54.8%.

Take `COc1ccc(CC[C@H]2OC(=O)[C@@H]3CCCCN3C(=O)C(=O)C(C)(C)COC(=O)C=CCCN(C)C(=O)[C@H](C(C)C)NC(=O)[C@H](COC(C)(C)C)N(C)C(=O)C(c3ccccc3)NC(=O)CN(C)C(=O)COc3cccc2c3)cc1OC` (stereo partly drawn) [compound 44]: the “(%) inhibition of MIF nuclease activity” value at MIF came to 30.0%. In addition, in assay [1], the “(%) inhibition of cell death” value came to 52.2%.

Turning to `COc1ccc(CC[C@H]2OC(=O)[C@@H]3CCCCN3C(=O)C(=O)C(C)(C)COC(=O)C=CCCN(C)C(=O)[C@H](c3ccccc3)NC(=O)[C@H](COC(C)(C)C)N(C)C(=O)C(c3ccccc3)NC(=O)CN(C)C(=O)COc3cccc2c3)cc1OC` (stereo partly drawn) [compound 45], at MIF, the “(%) inhibition of MIF nuclease activity” value was 15.4%. In addition, the “(%) inhibition of cell death” value in assay [1] was determined as 51.9%.

`COc1ccc(CC[C@H]2OC(=O)[C@@H]3CCCCN3C(=O)C(=O)C(C)(C)COC(=O)C=CCCN(C)C(=O)CNC(=O)[C@H](COC(C)(C)C)N(C)C(=O)C(c3ccccc3)NC(=O)[C@H](C)N(C)C(=O)COc3cccc2c3)cc1OC` (stereo partly drawn) [compound 46]: the “(%) inhibition of MIF nuclease activity” value at MIF is 21.7%. Further, the “(%) inhibition of cell death” value in assay [1] amounted to 52.5%.

Turning to `COc1ccc(CC[C@H]2OC(=O)[C@@H]3CCCCN3C(=O)C(=O)C(C)(C)COC(=O)C=CCCN(C)C(=O)[C@H](C)NC(=O)[C@H](COC(C)(C)C)N(C)C(=O)C(c3ccccc3)NC(=O)[C@H](C)N(C)C(=O)COc3cccc2c3)cc1OC` (stereo partly drawn) [compound 47], at MIF, the “(%) inhibition of MIF nuclease activity” value worked out at 52.3%. The “(%) inhibition of cell death” value in assay [1] is 54.2%.

For the molecule `COc1ccc(CC[C@H]2OC(=O)[C@@H]3CCCCN3C(=O)C(=O)C(C)(C)COC(=O)C=CCCN(C)C(=O)[C@@H](C)NC(=O)[C@H](COC(C)(C)C)N(C)C(=O)C(c3ccccc3)NC(=O)[C@H](C)N(C)C(=O)COc3cccc2c3)cc1OC` (stereo partly drawn) [compound 48], the “(%) inhibition of MIF nuclease activity” value on MIF stood at 61.5%. The “(%) inhibition of cell death” value in assay [1] amounted to 49.2%.

Turning to `CCC[C@@H]1NC(=O)[C@H](COC(C)(C)C)N(C)C(=O)C(c2ccccc2)NC(=O)[C@H](C)N(C)C(=O)COc2cccc(c2)[C@@H](CCc2ccc(OC)c(OC)c2)OC(=O)[C@@H]2CCCCN2C(=O)C(=O)C(C)(C)COC(=O)C=CCCN(C)C1=O` (stereo partly drawn) [compound 49], the “(%) inhibition of MIF nuclease activity” value at MIF came to 14.7%. In addition, the “(%) inhibition of cell death” value in assay [1] came out at 60.0%.

Consider `COCC[C@@H]1NC(=O)[C@H](COC(C)(C)C)N(C)C(=O)C(c2ccccc2)NC(=O)[C@H](C)N(C)C(=O)COc2cccc(c2)[C@@H](CCc2ccc(OC)c(OC)c2)OC(=O)[C@@H]2CCCCN2C(=O)C(=O)C(C)(C)COC(=O)C=CCCN(C)C1=O` (stereo partly drawn) [compound 50], for which the “(%) inhibition of MIF nuclease activity” value on MIF worked out at 18.0%. Also, the “(%) inhibition of cell death” value in assay [1] is recorded as 56.4%.

Consider `COc1ccc(CC[C@H]2OC(=O)[C@@H]3CCCCN3C(=O)C(=O)C(C)(C)COC(=O)C=CCCN(C)C(=O)[C@@H](CC(C)C)NC(=O)[C@H](COC(C)(C)C)N(C)C(=O)C(c3ccccc3)NC(=O)[C@H](C)N(C)C(=O)COc3cccc2c3)cc1OC` (stereo partly drawn) [compound 52], for which the “(%) inhibition of MIF nuclease activity” value on MIF is 9.9%. Besides, in assay [1], the “(%) inhibition of cell death” value came to 61.0%.
